Data from patent publication US9586945B2, “Aminochromane, aminothiochromane and amino-1,2,3,4-tetrahydroquinoline derivatives, pharmaceutical compositions containing them, and their use in therapy” (AbbVie Deutschland GmbH & Co. KG, priority 2013, dated 2017).

Experiments:
[1] = biological target: human GlyT1c transporter (Homo sapiens (Human), UniProt P48067); experiment: Radioligand binding assay using recombinant CHO cell membranes expressing human GlyT1; conditions: examples marked * tested as fumarate salts, read-out: radioligand binding Kiapp
[2] = Metabolic stability in human liver microsomes; format: in vitro ADME; conditions: 0.5 μM test substance, NADPH, 37° C., scaled microsomal clearance, examples marked * tested as fumarate salts
Method: Metabolic stability was determined as follows:
0.5 μM test substance was preincubated together with human liver microsomes (0.25 mg of microsomal protein/[…]) in 0.05 M potassium phosphate buffer of pH 7.4 in microtiter plates at 37° C. for 5 min. The reaction was started by adding NADPH (1.0 mM). After 0, 5, 10, 15, 20 and 30 min the reaction was stopped and cooled with twice the amount of quench solution consisting of acetonitrile/methanol 1:1, and containing 0.2 μM carbutamide. The samples were frozen until analyzed. The remaining concentration of undegraded test substance was determined by LC MSMS. The half-life (T1/2) was determined from the gradient of the signal of test substance/unit time plot, al-lowing to calculate the half-life of the test substance, assuming first order kinetics, from the de-crease in the concentration of the compound with time. The microsomal clearance (mClint) was calculated as follows: mClint=((ln(2)/t1/2)/Microsomal Protein Concentration (mg/ml))*1000, leading to the unit of uL/min/mg. The scaled clearance (mClin_scaled) was calculated as mCLint_scaled=m CLint*(Microsomal Yield (mg/kg BW))/1000000*60, leading to the units L/hr/kg. The Microsomal Yield is defined by the specifics of the used microsomes. Calculations were modified from references: Di, The Society for Biomolecular Screening, 2003, 453-462; Obach, DMD, 1999 vol 27. N 11, 1350-1359.

Chain of human GlyT1c transporter (P48067 whole entry): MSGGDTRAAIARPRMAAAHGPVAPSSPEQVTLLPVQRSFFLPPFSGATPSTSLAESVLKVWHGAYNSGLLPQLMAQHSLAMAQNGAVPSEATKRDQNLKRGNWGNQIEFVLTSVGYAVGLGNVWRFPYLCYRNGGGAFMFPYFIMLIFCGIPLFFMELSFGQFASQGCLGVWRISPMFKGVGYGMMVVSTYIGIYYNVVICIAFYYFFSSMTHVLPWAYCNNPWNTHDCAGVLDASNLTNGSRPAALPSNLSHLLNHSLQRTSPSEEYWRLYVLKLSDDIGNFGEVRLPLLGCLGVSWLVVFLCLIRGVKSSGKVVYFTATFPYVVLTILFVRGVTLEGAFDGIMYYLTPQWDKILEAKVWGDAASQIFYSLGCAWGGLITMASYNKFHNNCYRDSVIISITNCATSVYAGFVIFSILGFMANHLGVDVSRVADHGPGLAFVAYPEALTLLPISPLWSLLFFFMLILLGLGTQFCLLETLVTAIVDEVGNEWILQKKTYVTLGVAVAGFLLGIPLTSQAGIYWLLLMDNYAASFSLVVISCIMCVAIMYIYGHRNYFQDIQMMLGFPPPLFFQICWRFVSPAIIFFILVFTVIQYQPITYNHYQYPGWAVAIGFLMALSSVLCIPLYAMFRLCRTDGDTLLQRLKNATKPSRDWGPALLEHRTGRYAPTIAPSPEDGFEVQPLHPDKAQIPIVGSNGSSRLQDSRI

Q: What does the source list for `Cn1cc(S(=O)(=O)NC2CN(c3ccc4c(c3)[C@H](Cc3ccccc3)[C@H](N3CCC3)CO4)C2)cn1` (relative stereo) [Example 5, Cis-N-(1-(3-(azetidin-1-yl)-4-benzylchroman-6-yl)azetidin-3-yl)-1-methyl-1H-pyrazole-4-sulfonamide]?
A: Ki [1]: ≤ 100 nM; human mCl [2]: ≦5 L/h/Kg

Q: With `CCCS(=O)(=O)NC1CN(c2ccc3c(c2)C(Cc2ccccc2)C(NC)CO3)C1` (racemic) [Example 11, Cis-N-(1-(4-benzyl-3-(methylamino)chroman-6-yl)azetidin-3-yl)propane-1-sulfonamide] as the molecule, how does the Ki [1] read?
A: Its Ki is ≤ 10 nM.

Q: And the “human mCl” value [2]?
A: The value was “≦5 L/h/Kg”.

Q: Which Ki [1] does the source give for `CCCS(=O)(=O)NC1CN(c2ccc3c(c2)[C@H](Cc2ccccc2)[C@H](N(CC)CC)CO3)C1` (relative stereo) [Example 30, Cis-N-(1-(4-benzyl-3-(diethylamino)chroman-6-yl)azetidin-3-yl)propane-1-sulfonamide] here?
A: The Ki was ≤ 100 nM.

Q: What about the “human mCl” value [2] of the same molecule?
A: Its value is “≦50 L/h/Kg”.

Q: With `Cn1cnc(S(=O)(=O)NC2CN(c3ccc4c(c3)C(Cc3ccccc3)C(N3CCC3)CO4)C2)c1` (stereo not shown) [Example 1, N-[1-[3-(azetidin-1-yl)-4-benzyl-chroman-6-yl]azetidin-3-yl]-1-methyl-imidazole-4-sulfonamide] as the molecule, how does the Ki [1] read?
A: The Ki was ≤ 10 nM.

Q: And the “human mCl” value [2]?
A: Its value is “≦5 L/h/Kg”.

Q: Which Ki [1] does the source give for `CNC1COc2ccc(N3CC(NS(=O)(=O)CC4CC4)C3)cc2C1Cc1ccccc1` (single isomer, unassigned) [Example 25, Cis-N-(1-(4-benzyl-3-(methylamino)chroman-6-yl)azetidin-3-yl)-1-cyclopropylmethanesulfonamide] here?
A: Its Ki is ≤ 1000 nM.

Q: What about the “human mCl” value [2] of the same molecule?
A: The value was “≦5 L/h/Kg”.

Q: With `CCCN[C@@H]1COc2ccc(N3CC(NS(=O)(=O)CCC)C3)cc2[C@@H]1Cc1ccccc1` (relative stereo) [Example 29, Cis-N-(1-(4-benzyl-3-(propylamino)chroman-6-yl)azetidin-3-yl)propane-1-sulfonamide] as the molecule, how does the Ki [1] read?
A: Its Ki is ≤ 100 nM.

Q: And the “human mCl” value [2]?
A: Its value is “≦5 L/h/Kg”.

Q: Which Ki [1] does the source give for `CCCS(=O)(=O)NC1CN(c2ccc3c(c2)C(Cc2ccccc2)C(NC)CO3)C1` (single isomer, unassigned) [Example 22, Cis-N-(1-(4-benzyl-3-(methylamino)chroman-6-yl)azetidin-3-yl)propane-1-sulfonamide] here?
A: Its Ki is ≤ 10 nM.

Q: What about the “human mCl” value [2] of the same molecule?
A: Its value is “≦5 L/h/Kg”.

Q: Which Ki [1] does the source give for `CNC1COc2ccc(N3CC(NS(=O)(=O)CC4CC4)C3)cc2C1Cc1ccccc1` (single isomer, unassigned) [Example 24, Cis-N-(1-(4-benzyl-3-(methylamino)chroman-6-yl)azetidin-3-yl)-1-cyclopropylmethanesulfonamide] here?
A: Its Ki is ≤ 10 nM.

Q: And the “human mCl” value [2]?
A: The value was “≦50 L/h/Kg”.

Q: With `Cn1cc(S(=O)(=O)NC2CN(c3ccc4c(c3)[C@H](Cc3ccccc3)[C@H](N3CCC3)CO4)C2)nn1` (relative stereo) [Example 6, Cis-N-(1-(3-(azetidin-1-yl)-4-benzylchroman-6-yl)azetidin-3-yl)-1-methyl-1H-1,2,3-triazole-4-sulfonamide] as the molecule, how does the Ki [1] read?
A: Its Ki is ≤ 10 nM.

Q: And the “human mCl” value [2]?
A: Its value is “≦5 L/h/Kg”.

Q: With `O=S(=O)(CC1CC1)NC1CN(c2ccc3c(c2)[C@H](Cc2ccccc2)[C@H](N2CCC2)CO3)C1` (relative stereo) [Example 4, Cis-N-(1-(3-(azetidin-1-yl)-4-benzylchroman-6-yl)azetidin-3-yl)-1-cyclopropylmethanesulfonamide] as the molecule, how does the Ki [1] read?
A: Its Ki is ≤ 100 nM.

Q: And the “human mCl” value [2]?
A: The value was “≦5 L/h/Kg”.

Q: With `O=S(=O)(NC1CN(c2ccc3c(c2)[C@H](Cc2ccccc2)[C@H](N2CCC2)CO3)C1)c1cccnc1F` (relative stereo) [Example 10, Cis-N-(1-(3-(azetidin-1-yl)-4-benzylchroman-6-yl)azetidin-3-yl)-2-fluoropyridine-3-sulfonamide] as the molecule, how does the Ki [1] read?
A: Its Ki is ≤ 100 nM.

Q: And the “human mCl” value [2]?
A: Its value is “≦5 L/h/Kg”.
